Results on six compounds are retold here after patent publication US8987459B2, “Compounds for the treatment of conditions associated with DGAT1 activity” (Novartis AG, priority 2013, dated 2015).

In general, AUC refers to the area under the concentration-time curve, a measure of exposure. A high value points to high exposure. The term Solubility denotes the dissolved amount per volume that the medium holds. Low readings indicate little dissolved substance, high ones much dissolved substance. As a reminder, the bioavailability is dose-corrected exposure relative to a reference, in per cent.

A short description of data set [1]: Hygroscopicity (relative humidity). It is filed as physicochemical. To be noted: for Change in crystallinity (PXRD): listed under hygroscopicity.
The nature of data set [2]: Intrinsic dissolution rate. It is filed as physicochemical.
The nature of a further data set: Efficacious AUC in dog. It is filed as in vivo. To be noted: plasma, 0.3 mg/kg, at 0.3 mpk. How it is done:
(§1) With a meglumine salt suspension at 100 mg/kg, about 33% decrease in plasma exposure was observed compared to solid dispersion. […] The solid dispersion formulation has several technical challenges which can be avoided by using a 2-((1R,4R)-4-(4-(5-(benzo[d]oxazol-2-ylamino)pyridin-2-yl)phenyl)cyclohexyl)acetic acid meglumine Form A suspension-based formulation.

Data set [3] in a line: Efficacious dose in preclinical species. It is filed as in vivo. How it is done:
(§2) A standard capsule formulation with 2-((1R,4R)-4-(4-(5-(benzo[d]oxazol-2-ylamino)pyridin-2-yl)phenyl)cyclohexyl)acetic acid meglumine is the recommended CSF strategy to support the projected efficacious dose range in human (11-120 mg) based on following observations: • Low efficacious dose of 2-((1R,4R)-4-(4-(5-(benzo[d]oxazol-2-ylamino)pyridin-2-yl)phenyl)cyclohexyl)acetic acid in preclinical species (0.1-0.3 mg/kg) • High exposure multiples in preclinical species (rat and dog) from a suspension formulation of 2-((1R,4R)-4-(4-(5-(benzo[d]oxazol-2-ylamino)pyridin-2-yl)phenyl)cyclohexyl)acetic acid meglumine • Aqueous kinetic solubility of 2-((1R,4R)-4-(4-(5-(benzo[d]oxazol-2-ylamino)pyridin-2-yl)phenyl)cyclohexyl)acetic acid meglumine can be further improved (20-60 fold) from simple physical blend with polymers and/or surfactants • Improvement in exposure and dose linearity from 2-((1R,4R)-4-(4-(5-(benzo[d]oxazol-2-ylamino)pyridin-2-yl)phenyl)cyclohexyl)acetic acid meglumine over the sodium salt

Data set [4] is described as follows: Solubility in buffers, biorelevant media and water.
Data set [5] can be described thus: Oral exposure and bioavailability in rat. It is filed as in vivo. To be noted: for dose linearity: suspension. How it is done:
(§3) Direct in vivo comparison of 2-((1R,4R)-4-(4-(5-(benzo[d]oxazol-2-ylamino)pyridin-2-yl)phenyl)cyclohexyl)acetic acid meglumine and 2-((1R,4R)-4-(4-(5-(benzo[d]oxazol-2-ylamino)pyridin-2-yl)phenyl)cyclohexyl)acetic acid sodium salt suspensions were performed in rat and mouse. […] From this preclinical data, it was confirmed that 2-((1R,4R)-4-(4-(5-(benzo[d]oxazol-2-ylamino)pyridin-2-yl)phenyl)cyclohexyl)acetic acid meglumine is a better performing salt.

The nature of data set [6]: Oral bioavailability in mouse. To be noted: suspension at 30 mg/kg. It is filed as in vivo. How it is done:
as §3

Data set [7] is described as follows: Oral exposure and bioavailability in dog. It is filed as in vivo. How it is done:
as §1

Data set [8] in a line: Aqueous kinetic solubility, physical blend with polymers and/or surfactants. To be noted: simple physical blend with polymers and/or surfactants. It is filed as physicochemical. How it is done:
as §2

[9] abbreviates: background statement, no medium given.

Converted amounts (≈) assume the structure as drawn. Structures can show the parent of a compound that is named as a salt. Where two headings read alike, the source gives them in different places. Marks after values point to notes of the source that are not given here.

Turning to `O=C(O)C[C@H]1CC[C@H](c2ccc(-c3ccc(Nc4nc5ccccc5o4)cn3)cc2)CC1` [Free acid, 2-((1R,4R)-4-(4-(5-(benzo[d]oxazol-2-ylamino)pyridin-2-yl)phenyl)cyclohexyl)acetic acid], in data set [1], the “Hygroscopicity [%] 0-40% r.h.” value was 0.136%. Moreover, in data set [1], the “Hygroscopicity [%] 0-95% r.h.” value amounted to 0.251%. Besides, in data set [1], the “Change in crystallinity (PXRD)” value is “No”. Further, in data set [2] (setting [9]), the “intrinsic dissolution (in words)” value is given as “low”. Besides, the “Intrinsic Dissolution Rate” value is 0.013 mg min^−1 cm^−2 in data set [2] (pH 4.5 (50 mM Acetate)) and “BLQ” in data set [2] (pH 6.8 (50 mM Phosphate)). This compound had an AUC in the data set “Efficacious AUC in dog” of 0.132 µM·h. Also, the “efficacious dose in preclinical species” value in data set [3] was 0.1 to 0.3 mg/kg. Moreover, the Solubility in data set [4] (50 mM acetate buffer, pH 4.8, aqueous buffer, Solubility [mg/ml], pH 4.8 (50 mM Acetate)) was below 0.5 µg/mL; in data set [4] (FaSSIF V2, fassif, Solubility [mg/ml], FaSSIF V2) it was 20 µg/mL (≈ 46.8 µM); in data set [4] (FeSSIF V2) it was 60 µg/mL (≈ 140 µM); in [4] (SGF, pH 2, simulated gastric fluid, Solubility [mg/ml], SGF pH 2.0), below 0.5 µg/mL; in data set [4] (Water), 10 µg/mL (≈ 23.4 µM); in [4] (pH 1 (0.1N HCl)), below 0.5 µg/mL. In addition, in [4] (pH 6.5 (50 mM Phosphate)), the “Solubility” value was below 0.5 µg/mL. Also, the “pH final of solubility sample” value in data set [4] (FaSSIF V2) was “(6.34)”; in data set [4] (FeSSIF V2), “(5.53)”; in data set [4] (SGF pH 2.0), “(2.38)”; in data set [4] (Water), “(7.63)”; in [4] (pH 1 (0.1N HCl)) it was “(1.59)”; in data set [4] (pH 4.8 (50 mM Acetate)), “(4.76)”. Also, the “pH final of solubility sample” value in data set [4] (pH 6.5 (50 mM Phosphate)) was “(6.87)”. The “solubility (in words)” value in [4] (setting [9]) was “low”.
Consider `C[N+](C)(C)CCO.O=C(O)C[C@H]1CC[C@H](c2ccc(-c3ccc(Nc4nc5ccccc5o4)cn3)cc2)CC1.O=C([O-])C[C@H]1CC[C@H](c2ccc(-c3ccc(Nc4nc5ccccc5o4)cn3)cc2)CC1` [Hemi-choline, 2-((1R,4R)-4-(4-(5-(benzo[d]oxazol-2-ylamino)pyridin-2-yl)phenyl)cyclohexyl) acetate Hemi-choline salt], for which, in [1], the “Hygroscopicity [%] 0-40% r.h.” value is 1.44%, the “Hygroscopicity [%] 0-95% r.h.” value was determined as 15.95% and the “Change in crystallinity (PXRD)” value is listed as “No”. The “Intrinsic Dissolution Rate” value in [2] (pH 4.5 (50 mM Acetate)) is listed as “BLQ”. For the same compound, where the note is “pH 1”, the “Solubility” value is 140 µg/mL and the “pH final of solubility sample” value was “(1.06)”. Where the note is “pH 2”, the “Solubility” value stood at 95 µg/mL and the “pH final of solubility sample” value is recorded as “(1.05)”. Further, for the setting “pH 4.8”, the “Solubility” value came out at 15 µg/mL and the “pH final of solubility sample” value is recorded as “(4.76)”. Moreover, for the setting “pH 6.5”, the “Solubility” value amounted to 30 µg/mL and the “pH final of solubility sample” value is listed as “(7.15)”.
For the compound `O=C(O)C[C@H]1CC[C@H](c2ccc(-c3ccc(Nc4nc5ccccc5o4)cn3)cc2)CC1` [Meglumine Form A, Meglumine salt of 2-((1R,4R)-4-(4-(5-(benzo[d]oxazol-2-ylamino)pyridin-2-yl)phenyl)cyclohexyl)acetic acid], the “Hygroscopicity [%] 0-40% r.h.” value in [1] stood at 0.162%. Besides, the “Hygroscopicity [%] 0-95% r.h.” value in data set [1] is recorded as 0.588%. For the same compound, the “Change in crystallinity (PXRD)” value in data set [1] is listed as “No”. Also, the “Intrinsic Dissolution Rate” value in [2] (pH 4.5 (50 mM Acetate)) and in data set [2] (pH 6.8 (50 mM Phosphate)) was “BLQ” in each case. The “Solubility” value in data set [4] (FaSSIF V2) was 10 µg/mL; in data set [4] (FeSSIF V2), 1 µg/mL; in [4] (SGF pH 2.0) it was below 0.5 µg/mL; in [4] (Water), 70 µg/mL; in data set [4] (pH 1 (0.1N HCl)) it was 150 µg/mL; in [4] (pH 4.8 (50 mM Acetate)), below 0.5 µg/mL. Also, the “Solubility” value in data set [4] (pH 6.5 (50 mM Phosphate)) worked out at 40 µg/mL. Besides, the “pH final of solubility sample” value in [4] (FaSSIF V2) is given as “(6.86)”; in [4] (FeSSIF V2) it was “(6.26)”; in data set [4] (SGF pH 2.0), “(2.37)”; in data set [4] (Water) it was “(10.4)”; in [4] (pH 1 (0.1N HCl)), “(2.79)”; in data set [4] (pH 4.8 (50 mM Acetate)) it was “(4.88)”. For the same compound, the “pH final of solubility sample” value in [4] (pH 6.5 (50 mM Phosphate)) is listed as “(7.27)”.
With `O=C([O-])C[C@H]1CC[C@H](c2ccc(-c3ccc(Nc4nc5ccccc5o4)cn3)cc2)CC1.[K+]` [Potassium, 2-((1R,4R)-4-(4-(5-(benzo[d]oxazol-2-ylamino)pyridin-2-yl)phenyl)cyclohexyl) acetate Potassium salt], the “Hygroscopicity [%] 0-40% r.h.” value in [1] amounted to 4.52%. Moreover, the “Hygroscopicity [%] 0-95% r.h.” value in [1] is reported as 21.77%. In addition, the “Change in crystallinity (PXRD)” value in data set [1] is “No”. In addition, the “Solubility” value in data set [4] (FaSSIF V2) is 95 µg/mL; in data set [4] (SGF pH 2.0), 3 µg/mL; in [4] (Water), 1050 µg/mL; in data set [4] (pH 1 (0.1N HCl)) it was 50 µg/mL; in [4] (pH 4.8 (50 mM Acetate)) it was below 0.5 µg/mL; in data set [4] (pH 6.5 (50 mM Phosphate)) it was below 0.5 µg/mL. Moreover, the “pH final of solubility sample” value in data set [4] (FaSSIF V2) is recorded as “(8.32)”; in data set [4] (SGF pH 2.0) it was “(3.73)”; in data set [4] (Water) it was “(10.3)”; in data set [4] (pH 1 (0.1N HCl)), “(3.89)”; in data set [4] (pH 4.8 (50 mM Acetate)), “(4.90)”; in data set [4] (pH 6.5 (50 mM Phosphate)) it was “(7.29)”.
In the case of `O=C([O-])C[C@H]1CC[C@H](c2ccc(-c3ccc(Nc4nc5ccccc5o4)cn3)cc2)CC1.[Na+]` [Sodium, 2-((1R,4R)-4-(4-(5-(benzo[d]oxazol-2-ylamino)pyridin-2-yl)phenyl)cyclohexyl) acetate sodium salt], the “Hygroscopicity [%] 0-40% r.h.” value in data set [1] was 13.1%. In addition, the “Hygroscopicity [%] 0-95% r.h.” value in data set [1] stood at 16.2%. The “Change in crystallinity (PXRD)” value in data set [1] is recorded as “No”. Moreover, the dose linearity entry in [5] (30 and 100 mg/kg) was “not dose linear”. Besides, the bioavailability in data set [5] (suspension at 30 mg/kg) was determined as 7.6%; in [5] (suspension at 100 mg/kg) it was 4.6%; in data set [6] it was 9.6%. Also, the “Solubility” value in data set [4] (FaSSIF V2) was 7 µg/mL; in data set [4] (FeSSIF V2), 3 µg/mL; in [4] (Water) it was 23 µg/mL; in [4] (pH 1 (0.1N HCl)), below 0.5 µg/mL; in data set [4] (pH 4.8 (50 mM Acetate)), below 0.5 µg/mL; in [4] (pH 6.5 (50 mM Phosphate)), 0.6 µg/mL. Further, the “pH final of solubility sample” value in data set [4] (FaSSIF V2) is given as “(7.47)”; in data set [4] (FeSSIF V2) it was “(5.66)”; in data set [4] (SGF pH 2.0), “(9.13)”; in data set [4] (Water), “(9.3)”; in [4] (pH 1 (0.1N HCl)), “(1.03)”; in data set [4] (pH 4.8 (50 mM Acetate)), “(5.08)”. In data set [4] (pH 6.5 (50 mM Phosphate)), the “pH final of solubility sample” value was “(8.5)”. Besides, in data set [4] (SGF pH 2.0), the “Solubility [mg/ml]” value is recorded as 0.062* mg/ml.
For the compound `O=C(O)C[C@H]1CC[C@H](c2ccc(-c3ccc(Nc4nc5ccccc5o4)cn3)cc2)CC1` [meglumine salt, meglumine salt of 2-((1R,4R)-4-(4-(5-(benzo[d]oxazol-2-ylamino)pyridin-2-yl)phenyl)cyclohexyl)acetic acid], the bioavailability in [7] (plasma, po, 30 mg/kg solution dose (sodium material dissolved in 10% HPβCD in purified water or PBS), read-out: Absolute oral bioavailability) is 1.5%; in data set [5] (in vivo, oral, 300 mg/kg, suspension at 300 mpk, read-out: bioavailability), 1.9%; in data set [5] (in vivo, oral, suspension at 30 mg/kg, read-out: bioavailability), 3.1%; in data set [5] (in vivo, oral, suspension at 100 mg/kg, read-out: bioavailability) it was 3.8%; in data set [6] (in vivo, oral, read-out: bioavailability) it was 17.3%. Further, in data set [7] (suspension at 100 mg/kg), the “decrease in plasma exposure compared to solid dispersion” value is reported as “about 33%”. The “exposure over the efficacious AUC” value in data set [7] (suspension at 100 mg/kg) was around 150 ×. Besides, the dose linearity result in data set [5] (30 and 100 mg/kg) is recorded as “dose linear”; in data set [5] (300 mpk), “non-linear”. For the same compound, in data set [8], the “improvement of aqueous kinetic solubility” value is reported as 20-60 fold.
